Measurements taken from patent US8796234B2, “Crosslinking branched molecule through thiol-disulfide exchange to form hydrogel” (Agency for Science, Technology and Research, priority 2009, dated 2014).

Test: Drug loading capacity of sample hydrogel
Format: physicochemical
Conditions: poly(BAC2-AEPZ1)-PEG hydrogel
Procedure: Aqueous solutions of 5 wt % poly(BAC2-AEPZ1)-PEG was prepared and left to equilibrate overnight at room temperature. Appropriate amounts of doxorubicin (Dox) were loaded to make the concentration of Dox in the polymer solution 5 mg mL^−1. Subsequently, small amount of 5M sodium hydroxide (NaOH) was added in and was being vortexed for a few minutes to adjust pH to more than 12, and the solutions turn blue. Then, the solution was left undisturbed during hydrogel formation for predetermined time. After predetermined time, a slight in excessive of 5M HCl was added to neutralize the hydrogel to keep the hydrogel stable, and the hydrogel turned red. […]
The results were presented in terms of cumulative release as a function of time: Cumulative amount release (%)=(Mt/M∞) where Mt is the amount of Dox released from the hydrogel at time t and M∞ is the estimate amount of Dox loaded in the hydrogel and was calculated from the weight difference of the initial Dox solution concentration and the remaining Dox solution concentration (combining rinsing water and remaining solution expelled from the hydrogel) after loading.
1 mL of Pac/methanol was extracted from saturated stock solution (50 mg/mL) and added to a vial. […] The column effluent was detected UV spectrophotometrically at wavelength of 227 nm. […]

Structure (SMILES) | loading capacity of drug in the sample hydrogel
COc1cccc2c1C(=O)c1c(O)c3c(c(O)c1C2=O)C[C@@](O)(C(=O)CO)C[C@@H]3O[C@H]1C[C@H](N)[C@H](O)[C@H](C)O1 [Dox, doxorubicin] | 5-10%
CC(=O)O[C@H]1C(=O)[C@@]2(C)[C@H]([C@H](OC(=O)c3ccccc3)[C@]3(O)C[C@H](OC(=O)[C@H](O)[C@@H](NC(=O)c4ccccc4)c4ccccc4)C(C)=C1C3(C)C)[C@]1(OC(C)=O)CO[C@@H]1C[C@@H]2O [Pac, Paclitaxel] | 30-50%
